Activity data for two compounds are collected here from ChEMBL document CHEMBL5678818, “Discovery of potent SOS1 inhibitors that block RAS activation via disruption of the RAS-SOS1 interaction” (Proc Natl Acad Sci U S A, 2019).

Test [1] addresses T1, Serine/threonine-protein kinase DCLK3 (Homo sapiens) (UniProt Q9C098).
T1 sequence (whole entry): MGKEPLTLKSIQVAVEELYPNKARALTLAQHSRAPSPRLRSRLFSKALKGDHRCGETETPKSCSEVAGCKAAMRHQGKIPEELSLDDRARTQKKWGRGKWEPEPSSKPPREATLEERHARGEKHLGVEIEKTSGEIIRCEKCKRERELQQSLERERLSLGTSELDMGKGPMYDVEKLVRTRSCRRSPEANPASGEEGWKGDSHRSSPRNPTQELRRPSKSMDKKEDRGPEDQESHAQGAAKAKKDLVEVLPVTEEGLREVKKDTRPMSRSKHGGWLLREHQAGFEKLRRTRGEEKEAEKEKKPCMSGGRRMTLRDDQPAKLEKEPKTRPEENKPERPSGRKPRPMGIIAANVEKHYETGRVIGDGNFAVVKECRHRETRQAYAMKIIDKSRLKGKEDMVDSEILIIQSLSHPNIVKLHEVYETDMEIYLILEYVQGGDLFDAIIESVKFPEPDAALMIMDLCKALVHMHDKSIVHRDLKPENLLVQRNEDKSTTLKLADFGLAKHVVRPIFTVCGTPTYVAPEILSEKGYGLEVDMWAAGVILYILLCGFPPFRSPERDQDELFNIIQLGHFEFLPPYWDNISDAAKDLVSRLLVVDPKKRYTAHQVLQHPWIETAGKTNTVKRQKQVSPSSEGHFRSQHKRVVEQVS
In words: Inhibition of DCAMKL3 (unknown origin) assessed as residual activity at 1000 nM by KINOMEscan analysis relative to control.

Test [2] deals with T2, Myotonin-protein kinase (Homo sapiens) (UniProt Q09013).
T2 sequence (whole entry): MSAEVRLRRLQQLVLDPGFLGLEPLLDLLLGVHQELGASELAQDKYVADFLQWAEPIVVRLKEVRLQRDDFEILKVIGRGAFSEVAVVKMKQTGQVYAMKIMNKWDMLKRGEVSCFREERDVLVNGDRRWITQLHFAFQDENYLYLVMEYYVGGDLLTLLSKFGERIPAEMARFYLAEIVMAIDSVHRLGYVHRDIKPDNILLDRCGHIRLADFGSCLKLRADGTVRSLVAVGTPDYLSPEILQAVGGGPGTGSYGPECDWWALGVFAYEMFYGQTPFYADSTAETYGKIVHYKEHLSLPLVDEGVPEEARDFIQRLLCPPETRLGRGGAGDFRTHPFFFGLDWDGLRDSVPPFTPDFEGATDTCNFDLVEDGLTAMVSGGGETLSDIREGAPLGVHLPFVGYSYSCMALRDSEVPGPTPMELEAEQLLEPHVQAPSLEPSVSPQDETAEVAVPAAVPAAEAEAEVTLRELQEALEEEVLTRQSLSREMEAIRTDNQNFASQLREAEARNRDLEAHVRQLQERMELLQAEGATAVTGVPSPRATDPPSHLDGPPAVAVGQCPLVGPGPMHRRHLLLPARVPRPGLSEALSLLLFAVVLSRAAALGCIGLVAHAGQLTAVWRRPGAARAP
In words: Inhibition of DMPK (unknown origin) assessed as residual activity at 1000 nM by KINOMEscan analysis relative to control.

Test [3] has as its target Receptor tyrosine-protein kinase erbB-3 (Homo sapiens) (UniProt P21860). Kind of test: Inhibition of ERBB3 (unknown origin) assessed as residual activity at 1000 nM by KINOMEscan analysis relative to control.
The target of test [4] is T3, Mitogen-activated protein kinase 15 (Homo sapiens) (UniProt Q8TD08).
T3 sequence (whole entry): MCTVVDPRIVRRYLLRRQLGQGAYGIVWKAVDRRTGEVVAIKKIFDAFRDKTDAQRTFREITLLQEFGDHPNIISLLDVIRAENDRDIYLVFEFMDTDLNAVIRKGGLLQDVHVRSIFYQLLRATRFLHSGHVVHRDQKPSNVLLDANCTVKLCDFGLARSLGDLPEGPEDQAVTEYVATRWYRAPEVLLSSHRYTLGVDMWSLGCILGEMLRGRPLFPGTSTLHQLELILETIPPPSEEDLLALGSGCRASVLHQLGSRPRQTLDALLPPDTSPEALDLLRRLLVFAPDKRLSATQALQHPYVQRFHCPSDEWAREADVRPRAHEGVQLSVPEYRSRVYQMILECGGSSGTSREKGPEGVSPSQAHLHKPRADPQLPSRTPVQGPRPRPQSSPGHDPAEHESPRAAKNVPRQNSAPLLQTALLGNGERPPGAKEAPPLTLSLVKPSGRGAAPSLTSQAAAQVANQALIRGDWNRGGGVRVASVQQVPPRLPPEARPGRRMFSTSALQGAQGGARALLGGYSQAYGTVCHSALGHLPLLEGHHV
In words: Inhibition of ERK8 (unknown origin) assessed as residual activity at 1000 nM by KINOMEscan analysis relative to control.

Test [5] concerns the target Tyrosine-protein kinase Fgr (Homo sapiens) (UniProt P09769). In words: Inhibition of FGR (unknown origin) assessed as residual activity at 1000 nM by KINOMEscan analysis relative to control.
For test [6], the target named is Leucine-rich repeat serine/threonine-protein kinase 2 (Homo sapiens) (UniProt Q5S007). In words: Inhibition of LRRK2 (unknown origin) assessed as residual activity at 1000 nM by KINOMEscan analysis relative to control.
In test [7] the target is T4, Serine/threonine-protein kinase Nek11 (Homo sapiens) (UniProt Q8NG66).
T4 sequence (whole entry): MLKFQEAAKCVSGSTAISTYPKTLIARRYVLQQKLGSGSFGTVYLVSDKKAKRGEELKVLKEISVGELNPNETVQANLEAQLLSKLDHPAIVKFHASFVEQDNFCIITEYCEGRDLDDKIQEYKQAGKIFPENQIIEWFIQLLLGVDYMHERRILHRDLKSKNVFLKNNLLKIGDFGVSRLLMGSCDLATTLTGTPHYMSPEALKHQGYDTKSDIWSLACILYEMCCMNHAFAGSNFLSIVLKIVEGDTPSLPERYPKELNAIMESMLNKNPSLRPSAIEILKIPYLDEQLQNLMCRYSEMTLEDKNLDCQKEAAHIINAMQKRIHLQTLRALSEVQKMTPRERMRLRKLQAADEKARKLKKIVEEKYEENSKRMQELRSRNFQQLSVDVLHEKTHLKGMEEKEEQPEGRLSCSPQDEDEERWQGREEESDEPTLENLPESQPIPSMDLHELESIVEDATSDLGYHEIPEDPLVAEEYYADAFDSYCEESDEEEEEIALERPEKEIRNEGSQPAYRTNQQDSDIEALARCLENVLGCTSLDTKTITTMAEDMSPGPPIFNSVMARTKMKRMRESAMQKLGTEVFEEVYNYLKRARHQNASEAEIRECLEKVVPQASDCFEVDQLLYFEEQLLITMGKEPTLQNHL
Kind of test: Inhibition of NEK11 (unknown origin) assessed as residual activity at 1000 nM by KINOMEscan analysis relative to control.

Test [8] addresses Non-receptor tyrosine-protein kinase TYK2 (Homo sapiens) (UniProt P29597). Kind of test: Inhibition of TYK2 JH1 catalytic domain (unknown origin) assessed as residual activity at 1000 nM by KINOMEscan analysis relative to control.

Each structure is given as a SMILES string.

Non-receptor tyrosine-protein kinase TYK2 (Homo sapiens), sequence (P29597 whole entry, the tested form may be a part): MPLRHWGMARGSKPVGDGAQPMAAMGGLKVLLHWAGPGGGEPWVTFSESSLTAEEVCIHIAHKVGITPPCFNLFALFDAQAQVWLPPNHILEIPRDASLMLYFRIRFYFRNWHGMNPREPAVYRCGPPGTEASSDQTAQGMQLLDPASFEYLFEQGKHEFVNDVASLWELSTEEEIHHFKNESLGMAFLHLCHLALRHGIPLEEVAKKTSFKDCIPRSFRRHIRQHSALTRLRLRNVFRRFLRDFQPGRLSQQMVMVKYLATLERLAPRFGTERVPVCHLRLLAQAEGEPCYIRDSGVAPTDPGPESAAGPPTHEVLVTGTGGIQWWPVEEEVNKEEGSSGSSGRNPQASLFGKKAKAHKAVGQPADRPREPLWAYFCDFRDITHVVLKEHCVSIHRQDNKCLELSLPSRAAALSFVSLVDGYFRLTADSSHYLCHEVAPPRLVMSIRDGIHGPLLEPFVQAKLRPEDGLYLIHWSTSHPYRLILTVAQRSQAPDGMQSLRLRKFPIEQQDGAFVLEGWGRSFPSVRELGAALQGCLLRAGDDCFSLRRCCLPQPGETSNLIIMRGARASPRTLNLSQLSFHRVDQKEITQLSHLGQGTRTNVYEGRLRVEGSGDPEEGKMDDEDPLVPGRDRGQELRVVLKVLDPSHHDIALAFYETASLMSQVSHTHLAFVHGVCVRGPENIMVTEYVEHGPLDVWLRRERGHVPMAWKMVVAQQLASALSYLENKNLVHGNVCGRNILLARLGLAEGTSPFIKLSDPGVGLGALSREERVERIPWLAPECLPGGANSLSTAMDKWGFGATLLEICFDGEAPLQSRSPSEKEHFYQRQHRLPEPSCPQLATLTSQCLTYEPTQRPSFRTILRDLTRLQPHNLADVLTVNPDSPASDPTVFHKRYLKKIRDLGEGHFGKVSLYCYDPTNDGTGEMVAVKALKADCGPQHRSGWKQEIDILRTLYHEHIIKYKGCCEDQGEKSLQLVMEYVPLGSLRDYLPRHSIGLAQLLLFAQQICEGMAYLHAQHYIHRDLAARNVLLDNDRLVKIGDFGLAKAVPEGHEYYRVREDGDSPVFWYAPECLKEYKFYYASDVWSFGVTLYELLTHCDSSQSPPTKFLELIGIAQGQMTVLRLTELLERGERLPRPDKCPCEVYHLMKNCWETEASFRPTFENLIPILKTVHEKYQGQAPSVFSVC
Receptor tyrosine-protein kinase erbB-3 (Homo sapiens), sequence (P21860 whole entry): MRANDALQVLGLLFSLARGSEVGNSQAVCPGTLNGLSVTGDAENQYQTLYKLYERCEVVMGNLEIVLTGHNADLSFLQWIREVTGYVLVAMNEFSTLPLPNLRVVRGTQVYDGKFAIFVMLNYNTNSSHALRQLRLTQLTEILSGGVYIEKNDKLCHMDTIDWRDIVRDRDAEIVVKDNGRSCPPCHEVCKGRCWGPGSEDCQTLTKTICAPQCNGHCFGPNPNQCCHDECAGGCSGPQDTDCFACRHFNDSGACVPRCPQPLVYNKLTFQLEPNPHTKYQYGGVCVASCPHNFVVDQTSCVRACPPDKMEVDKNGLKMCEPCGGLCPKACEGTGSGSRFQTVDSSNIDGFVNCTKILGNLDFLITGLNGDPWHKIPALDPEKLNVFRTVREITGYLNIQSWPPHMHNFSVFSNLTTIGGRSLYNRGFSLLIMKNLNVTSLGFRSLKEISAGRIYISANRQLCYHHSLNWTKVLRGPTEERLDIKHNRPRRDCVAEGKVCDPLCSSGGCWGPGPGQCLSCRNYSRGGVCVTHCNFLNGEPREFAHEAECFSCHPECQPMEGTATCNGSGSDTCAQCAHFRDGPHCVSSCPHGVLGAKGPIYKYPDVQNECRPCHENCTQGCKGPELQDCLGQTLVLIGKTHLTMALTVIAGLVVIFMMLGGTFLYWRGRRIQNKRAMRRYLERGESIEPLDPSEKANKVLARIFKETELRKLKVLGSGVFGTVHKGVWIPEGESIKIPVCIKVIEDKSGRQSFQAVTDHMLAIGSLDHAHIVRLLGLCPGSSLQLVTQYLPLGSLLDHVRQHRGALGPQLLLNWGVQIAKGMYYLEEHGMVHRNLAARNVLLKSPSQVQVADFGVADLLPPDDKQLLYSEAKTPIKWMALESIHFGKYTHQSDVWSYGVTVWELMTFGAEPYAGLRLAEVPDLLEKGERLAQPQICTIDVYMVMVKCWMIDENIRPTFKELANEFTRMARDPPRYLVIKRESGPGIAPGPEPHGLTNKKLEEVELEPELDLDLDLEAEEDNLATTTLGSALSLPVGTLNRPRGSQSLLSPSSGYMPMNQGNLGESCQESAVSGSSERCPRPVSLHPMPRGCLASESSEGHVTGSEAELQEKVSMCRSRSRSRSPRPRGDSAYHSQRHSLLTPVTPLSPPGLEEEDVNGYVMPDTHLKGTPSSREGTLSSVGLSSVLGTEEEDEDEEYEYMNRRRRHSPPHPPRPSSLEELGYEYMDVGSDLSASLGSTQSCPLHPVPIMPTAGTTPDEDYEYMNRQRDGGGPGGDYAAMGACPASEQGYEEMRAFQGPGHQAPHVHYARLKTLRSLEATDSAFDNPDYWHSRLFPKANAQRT
Leucine-rich repeat serine/threonine-protein kinase 2 (Homo sapiens), sequence (Q5S007 whole entry): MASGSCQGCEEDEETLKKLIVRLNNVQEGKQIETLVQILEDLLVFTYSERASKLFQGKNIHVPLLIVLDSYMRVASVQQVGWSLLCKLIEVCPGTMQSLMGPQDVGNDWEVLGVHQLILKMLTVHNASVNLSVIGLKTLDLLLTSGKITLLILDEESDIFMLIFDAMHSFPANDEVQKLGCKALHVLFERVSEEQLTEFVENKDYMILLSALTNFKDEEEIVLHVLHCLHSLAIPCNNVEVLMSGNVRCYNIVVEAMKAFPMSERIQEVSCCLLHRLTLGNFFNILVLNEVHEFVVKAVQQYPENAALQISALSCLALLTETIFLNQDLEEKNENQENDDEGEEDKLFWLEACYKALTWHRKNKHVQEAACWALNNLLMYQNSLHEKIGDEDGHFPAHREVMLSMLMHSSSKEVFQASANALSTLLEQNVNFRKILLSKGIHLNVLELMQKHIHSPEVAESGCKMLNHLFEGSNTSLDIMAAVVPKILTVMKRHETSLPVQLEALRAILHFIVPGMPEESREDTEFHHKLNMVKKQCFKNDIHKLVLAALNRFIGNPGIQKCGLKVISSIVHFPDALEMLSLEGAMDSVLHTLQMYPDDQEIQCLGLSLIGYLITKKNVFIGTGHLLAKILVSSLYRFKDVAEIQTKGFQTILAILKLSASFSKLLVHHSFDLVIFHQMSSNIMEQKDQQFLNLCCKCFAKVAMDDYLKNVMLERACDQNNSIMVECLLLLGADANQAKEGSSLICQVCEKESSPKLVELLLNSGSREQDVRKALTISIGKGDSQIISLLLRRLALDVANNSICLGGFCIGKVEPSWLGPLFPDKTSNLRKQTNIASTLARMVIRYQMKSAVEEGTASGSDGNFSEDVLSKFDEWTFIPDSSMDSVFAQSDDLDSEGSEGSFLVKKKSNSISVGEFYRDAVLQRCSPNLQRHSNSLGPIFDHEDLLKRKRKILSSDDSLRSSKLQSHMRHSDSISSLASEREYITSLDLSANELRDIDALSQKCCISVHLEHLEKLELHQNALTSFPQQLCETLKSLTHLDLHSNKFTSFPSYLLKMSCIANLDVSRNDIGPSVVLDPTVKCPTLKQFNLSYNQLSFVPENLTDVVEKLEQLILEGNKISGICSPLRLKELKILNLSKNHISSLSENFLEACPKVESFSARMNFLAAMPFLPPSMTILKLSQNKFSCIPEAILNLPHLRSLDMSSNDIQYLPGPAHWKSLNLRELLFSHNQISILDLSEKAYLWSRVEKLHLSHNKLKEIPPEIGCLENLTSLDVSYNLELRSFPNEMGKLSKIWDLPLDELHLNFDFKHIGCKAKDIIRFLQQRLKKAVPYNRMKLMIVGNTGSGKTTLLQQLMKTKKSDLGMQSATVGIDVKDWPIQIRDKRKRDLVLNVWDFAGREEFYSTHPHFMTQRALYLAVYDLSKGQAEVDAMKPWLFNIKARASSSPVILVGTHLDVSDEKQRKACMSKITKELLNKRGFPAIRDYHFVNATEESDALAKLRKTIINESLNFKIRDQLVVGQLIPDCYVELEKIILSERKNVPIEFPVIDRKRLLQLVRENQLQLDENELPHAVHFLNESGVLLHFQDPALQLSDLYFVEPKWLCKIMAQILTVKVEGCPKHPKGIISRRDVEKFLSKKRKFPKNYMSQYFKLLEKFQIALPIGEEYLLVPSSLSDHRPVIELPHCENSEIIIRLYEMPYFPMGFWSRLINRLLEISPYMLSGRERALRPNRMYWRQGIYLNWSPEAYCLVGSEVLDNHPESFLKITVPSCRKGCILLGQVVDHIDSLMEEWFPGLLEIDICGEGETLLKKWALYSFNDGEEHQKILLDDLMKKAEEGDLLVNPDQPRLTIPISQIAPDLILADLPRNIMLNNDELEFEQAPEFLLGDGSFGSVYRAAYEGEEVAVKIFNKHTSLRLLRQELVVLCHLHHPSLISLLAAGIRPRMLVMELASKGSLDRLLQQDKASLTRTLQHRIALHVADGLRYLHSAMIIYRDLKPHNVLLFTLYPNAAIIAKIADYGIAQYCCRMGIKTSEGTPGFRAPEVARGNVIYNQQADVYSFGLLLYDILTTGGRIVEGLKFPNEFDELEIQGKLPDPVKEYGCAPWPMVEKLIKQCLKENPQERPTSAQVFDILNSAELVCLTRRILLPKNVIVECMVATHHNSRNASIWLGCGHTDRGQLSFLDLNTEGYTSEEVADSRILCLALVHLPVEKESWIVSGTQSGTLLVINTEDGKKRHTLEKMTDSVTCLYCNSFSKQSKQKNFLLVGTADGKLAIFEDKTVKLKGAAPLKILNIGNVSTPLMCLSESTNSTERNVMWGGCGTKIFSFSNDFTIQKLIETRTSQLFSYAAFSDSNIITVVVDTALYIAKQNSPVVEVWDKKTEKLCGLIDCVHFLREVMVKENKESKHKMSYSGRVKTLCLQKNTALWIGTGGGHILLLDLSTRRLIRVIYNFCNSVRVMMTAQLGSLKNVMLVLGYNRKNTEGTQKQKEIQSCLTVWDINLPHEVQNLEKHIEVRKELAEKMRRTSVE

In the case of `COc1cc2nc(C)nc(N[C@H](C)c3cccc(-c4cn[nH]c4)c3)c2cc1OC`, the Activity in test [1] was found to be 73%; in test [2] it was 87%; in test [3], 96%; in test [4], 60%; in test [5], 48%; in test [6] it was 94%. Also, the Activity was 93% in test [7] and 77% in test [8].
Regarding `COc1cc2ncnc(N[C@H](C)c3cccc4ccccc34)c2cc1OC`, the Activity came to 100% in test [1]; 100% in test [2]; 92% in test [3]; 100% in test [4]; 95% in test [5]; 99% in test [6]. Besides, the results for the Activity in test [7] and in test [8] were 81% and 82%, respectively.
